Laboratory results taken from the supplement of paper PMC6723410.

The molecules below were run on GUMC-403 (assay: viability at highest tested concentration (max response) relative to DMSO (% of DMSO control); higher = less cytotoxic). Conditions: library / dose series: MIPE library, 11-point 1:3 dilution; top concentration 46.1 µM; 48 h.
Outline: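 Conditionally reprogrammed GUMC-403 papilloma cells from a patient were plated at 700/well in 5 μL F + Y medium in 1536-well plates and left overnight at 37 °C. A pin tool then added 23 nL of library compounds as an 11-point 1:3 series, for 48 h. CellTiter-Glo luminescence was read on a ViewLux and scaled with vehicle wells set to 100% and empty wells to 0%. Each value gives viability at the highest tested concentration relative to vehicle control.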

Compound | viability
c1ccc(CCCN2CCN(CCOC(c3ccccc3)c3ccccc3)CC2)cc1 | 88.7
CCOC(=O)c1ncn2c1CN(C)C(=O)c1cc(F)ccc1-2 | 108
CO[C@@H]1[C@@H](O)[C@H](O)[C@@H](n2c3c(Cl)cccc3c3c4c(c5c6cccc(Cl)c6[nH]c5c32)C(=O)NC4=O)O[C@H]1CO | 112
COc1ccc([S+](=O)([O-])Nc2cc(-c3c(O)ccc4ccccc34)c(O)c3ccccc23)cc1 | 117
c1ccc2c(-c3cnn4cc(-c5ccc(N6CCNCC6)cc5)cnc34)ccnc2c1 | 2.71
O=C1Nc2ccc(Cl)cc2C(C#CC2CC2)(C(F)(F)F)O1 (stereo not given) | 95.5
O=C1\C=C/C=C2/[C@H]3CNC[C@H](C3)CN12 | 136
CCOC(=O)c1c(CSc2ccccc2)n(C)c2cc(Br)c(O)c(CN(C)C)c12 | 105
O=C1c2ccccc2-c2n[nH]c3cccc1c23 | 99.2
CC[C@]12CC[C@H]3[C@@H](CCC/4=C/C(=O)CC[C@H]34)[C@@H]1\C=C/[C@@]2(O)C#C | 130
C/C=C(\C)C(=O)N[C@@H](c1ccccc1)[C@@H](O)C(=O)O[C@H]1C[C@@]2(O)[C@@H](OC(=O)c3ccccc3)[C@@H]3[C@]4(OC(C)=O)CO[C@@H]4C[C@H](O)[C@@]3(C)C(=O)[C@H](OC(C)=O)C(=C1C)C2(C)C | 111
O=C1c2c(O)cccc2[C@H]([C@@H]2O[C@H](CO)[C@@H](O)[C@H](O)[C@H]2O)c2cc(CO)cc(O)c21 | 119
[O-]C(=O)C1=C(C(=C(Cl)C(=C1Cl)Cl)Cl)C/2=C/3\C=C(I)/C(=O)/C(=C3OC4=C2C=C(I)C(=C4I)[O-])I | 82
CC1COC2(CCN(CC2)C/3=N/C(=O)C4=CC(=CC(=C4S3)[N+]([O-])=O)C(F)(F)F)O1 (stereo not given) | 122
C[S+](=O)([O-])c1cc(F)cc2c3c(n(Cc4ccc(Cl)cc4)c12)[C@@H](CC(=O)O)CC3 | 128
COc1cc2ncnc(Nc3ccc(F)c(Cl)c3)c2cc1NC(=O)/C=C/CN1CCCCC1 | 63.8
NC\1=N\C(=O)N(\C=C1F)[C@H]2C[C@H](O)[C@@H](CO)O2 | 108
NC(=O)c1ncn([C@@H]2O[C@H](CO)[C@@H](O)[C@H]2O)c1O | 116
CC(=O)N(C)C1(c2ccccc2)CCN(CCC[C@]2(c3ccc(Cl)c(Cl)c3)CCCN(C(=O)c3ccccc3)C2)CC1 | 96.7
C[C@@H]1CC[C@@]2(OC1)OC1CC3C4CC=C5CC(O)CCC5(C)C4CCC3(C)C1[C@@H]2C (stereo not given in full) | 120
Nc1nc(-c2nn(Cc3ccccc3F)c3ncccc23)nc(N)c1N1CCOCC1 | 111
Clc1ccc(COC(Cn2ccnc2)c2ccc(Cl)cc2Cl)cc1 (stereo not given) | 117
OCC(O)C(O)C(O)CO (stereo not given) | 97.1
NC[C@H]1O[C@H](O[C@@H]2[C@H](O)[C@@H](O[C@H]3O[C@H](CO)[C@@H](O)[C@H](N)[C@H]3O)[C@H](N)C[C@@H]2N)[C@H](O)[C@@H](O)[C@@H]1O | 103
CCOC(=O)O[C@]1(C(=O)OCCl)CC[C@H]2[C@@H]3CCC4=CC(=O)C=C[C@]4(C)[C@H]3[C@@H](O)C[C@@]21C | 149

Compound | viability
C=C(C)[C@@H]1CC[C@]2(C)CC[C@]3(C)[C@H](CC[C@@H]4[C@@]5(C)CC[C@H](O)C(C)(C)[C@@H]5CC[C@]43C)[C@@H]12 | 135
C[C@H](NC(=O)Cc1cc(F)cc(F)c1)C(=O)N[C@H](C(=O)OC(C)(C)C)c1ccccc1 | 79.4
C=C(C)[C@@H]1CC[C@]2(C(=O)O)CC[C@]3(C)[C@H](CC[C@@H]4[C@@]5(C)CC[C@H](O)C(C)(C)[C@@H]5CC[C@]43C)[C@@H]12 | 94.5
C/C1=C2/[N]3[Co+]456([OH])<-[N]7=C1[C@@H](CCC(N)=O)C(C)(C)/C7=C/C1=[N]->4C(=C(/C)C4=[N]->5[C@@](C)([C@H]3[C@H](CC(N)=O)[C@@]2(C)CCC(=O)NC[C@@H](C)OP(=O)([O-])O[C@H]2[C@@H](O)[C@@H](n3c[n]->6c5cc(C)c(C)cc53)O[C@@H]2CO)[C@@](C)(CC(N)=O)[C@@H]4CCC(N)=O)/[C@@](C)(CC(N)=O)[C@@H]1CCC(N)=O | 91.2
O=C1CCc2ccc(OCCCCN3CCN(c4cccc(Cl)c4Cl)CC3)cc2N1 | 99.5
CC1(C)O[C@@H]2C[C@H]3[C@@H]4CCC5=CC(=O)C=C[C@]5(C)[C@H]4[C@@H](O)C[C@]3(C)[C@]2(C(=O)CO)O1 | 147
C=CC(=O)Nc1cccc(Sc2nc(Nc3ccc(N4CCN(C)CC4)cc3)ncc2Cl)c1 | 70.3
C=CC[C@@H]1/C=C(\C)C[C@H](C)C[C@H](OC)[C@H]2O[C@@](O)(C(=O)C(=O)N3CCCC[C@H]3C(=O)O[C@H](/C(C)=C/[C@@H]3CC[C@@H](O)[C@H](OC)C3)[C@H](C)[C@@H](O)CC1=O)[C@H](C)C[C@@H]2OC | 126
CC(=O)OCC(CCn1cnc2cnc(N)nc21)COC(C)=O | 116
CC1=CC/2=C(C=C1C)N(C[C@@H](O)[C@@H](O)[C@@H](O)CO)C/3=N/C(=O)NC(=O)C3=N2 | 123
CCc1cc(C(N)=S)ccn1 | 120
C[S+](=O)([O-])Oc1ccc2c(NC(N)=O)c(C(=O)c3ccc(Cl)cc3Cl)oc2c1 | 108
COc1ccc2cc1Oc1ccc(cc1)C[C@H]1c3cc(c(OC)cc3CCN1C)Oc1c(OC)c(OC)cc3c1[C@H](C2)N(C)CC3 | 86
CCC(C)(C)c1ccc(CC(C)CN2C[C@@H](C)O[C@@H](C)C2)cc1 (stereo not given in full) | 96.2
C=CCc1cc(OC)c(O)c(C(=O)NCCO)c1 | 118
CNC(=O)c1c(-c2ccc(F)cc2)oc2cc(N(CCO)[S+](C)(=O)[O-])c(C3CC3)cc12 | 69.1
COC1=CC=C(C=C1O)C/2=C/C(=O)C3=C(O2)C=C(O)C=C3O | 76.3
CCCCCN(C)CCC(O)(P(=O)([O-])O)P(=O)(O)O | 106
NNC(=O)c1ccncc1 | 104
OC1=CC=C(C=C1)\C2=C\OC3=C(C(=CC(=C3)O)O)C2=O | 77.6
CC#CCn1c(N2CCC[C@@H](N)C2)nc2c1c(=O)n(Cc1nc(C)c3ccccc3n1)c(=O)n2C | 111
C/C=C/C[C@@H](C)C(=O)[C@H]1C(=O)N[C@@H](C(C)C)C(=O)N(C)CC(=O)N(C)[C@@H](CC(C)C)C(=O)N[C@@H](C(C)C)C(=O)N(C)[C@@H](CC(C)C)C(=O)N[C@@H](C)C(=O)N[C@H](C)C(=O)N(C)[C@@H](CC(C)C)C(=O)N(C)[C@@H](CC(C)C)C(=O)N(C)[C@@H](C(C)C)C(=O)N1C | 90.6
CN1CC(=O)\N=C1\NC(=O)NC2=CC(=CC=C2)Cl | 91.6
C[C@H](CCC(=O)O)[C@H]1CC[C@H]2[C@@H]3[C@@H](O)C[C@@H]4C[C@H](O)CC[C@]4(C)[C@H]3CC[C@]12C | 84.8
CC[C@H]1CN2CCc3cc(OC)c(OC)cc3[C@@H]2C[C@@H]1C[C@H]1NCCc2cc(OC)c(OC)cc21 | 79.9

Compound | viability
CNc1nccc(-c2cccnc2Oc2cc(C(=O)Nc3cccc(C(F)(F)F)c3)ccc2C)n1 | 98
CCN(CC)CCOC1=CC=C(NC2=NC=C3\C=C(/C(=O)N(C)C3=N2)C4=C(Cl)C=CC=C4Cl)C=C1 | 75.4
Cc1cc(O)c2c(c1)C(=O)c1cc(O)cc(O)c1C2=O | 114
C\C1=N\N=C(\C2=CC=C(N)C=C2)C3=CC4=C(OCO4)C=C3C1 | 132
Cc1coc2c1C(=O)C(=O)c1c-2ccc2c1CCCC2(C)C | 113
COc1cc(OC2CCN(C)CC2)ccc1Nc1ncc2c(n1)n(C1CCCC1)c(=O)n2C | 60.4
CN1CCN(CC1)C/2=N/C3=CC=CC=C3NC4=C2C=C(C)S4 | 117
CC\1=C(C(\N=C(/N1)C2=CC(=NC=C2)Cl)C3=C(F)C=C(Cl)C=C3)/C(=O)NC4=C(F)C=C5[NH]N=CC5=C4 (stereo not given) | 101
CN[C@@H](C)C(=O)N[C@H]1CN(C(=O)CC(C)C)CC[C@H]2CC[C@@H](C(=O)NC(c3ccccc3)c3ccccc3)N2C1=O | 73.1
CN(C)c1ccc(-c2nc3c(N4CCN(CC(=O)Nc5nccs5)CC4)c(Cl)cnc3[nH]2)cc1 | 110
CN[C@H]1CCC2=CC(=C(OC)C(=C2C/3=C/C=C(OC)\C(=O)/C=C13)OC)OC | 100
COc1ccc(OC)c(-c2nnc3ccc(-c4ccc(OC)c(O[C@@H]5CCOC5)c4)nn23)c1 | 4.61
CN1C(=O)\C(=C/C(=C1/NC2=C(F)C=C(I)C=C2)C(=O)NOCCO)C | 80.2
Oc1cc(O)cc(/C=C/c2ccc(O)c(O)c2)c1 | 91.7
COc1ccc2c(c1)c(CC(=O)OCC(=O)O)c(C)n2C(=O)c1ccc(Cl)cc1 | 90.3
CCOC(=O)Nc1ccc(NCc2ccc(F)cc2)nc1N | 102
O=C(NCC1CCCCN1)c1cc(OCC(F)(F)F)ccc1OCC(F)(F)F (stereo not given) | 87.2
CC(=O)[C@H]1CC[C@H]2[C@@H]3CCC4=CC(=O)CC[C@]4(C)[C@H]3CC[C@]12C | 118
CC[C@@]1(O)C(=O)OC\C2=C1\C=C3/N(CC4=CC5=C(C=CC(=C5CN(C)C)O)N=C34)C2=O | 66.5
C[C@@H](NC(=O)c1ncnc(N)c1Cl)c1ncc(C(=O)Nc2cc(C(F)(F)F)c(Cl)cn2)s1 | 109
COc1c(N2C[C@@H]3CCCN[C@@H]3C2)c(F)cc2c(=O)c(C(=O)O)cn(C3CC3)c12.Cl.O | 133
N/C1=N/C(=O)C/2=C(NC[C@@H](CNC3=CC=C(C=C3)C(=O)N[C@@H](CCC([O-])=O)C([O-])=O)N2C=O)\N1 | 132
COC(=O)Nc1nc2cc(C(=O)c3ccccc3)ccc2[nH]1 | 88.2
Nc1nc(F)nc2c1ncn2[C@@H]1O[C@H](COP(=O)(O)O)[C@@H](O)[C@@H]1O | 101
COC1=NC(=NC(=C1N\C2=N\CCN2)Cl)C | 95.8
